# From ChEMBL document CHEMBL1201862, “PubChem BioAssay data set” (2004)
# Active and inactive are the calls of the source.
# Tests used:
# Cannabinoid receptor 1 [1] = biological target: T1, Cannabinoid receptor 1 (Homo sapiens, UniProt P21554); test: SAR analysis of antagonists of the Cannabinoid Receptor 1 using an Image-Based Assay - Set 4. [Related pubchem assays (depositor defined):AID2013, AID2026]; assay type: functional
# [2] = biological target: T2, G-protein coupled receptor 35 (Homo sapiens, UniProt Q9HC97); test: SAR analysis of Antagonists of the GPR35 Receptor using an Image-Based Assay - Set 6. [Related pubchem assays (depositor defined):AID2013, AID2026]; assay type: functional
# T2 sequence (Q9HC97 whole entry): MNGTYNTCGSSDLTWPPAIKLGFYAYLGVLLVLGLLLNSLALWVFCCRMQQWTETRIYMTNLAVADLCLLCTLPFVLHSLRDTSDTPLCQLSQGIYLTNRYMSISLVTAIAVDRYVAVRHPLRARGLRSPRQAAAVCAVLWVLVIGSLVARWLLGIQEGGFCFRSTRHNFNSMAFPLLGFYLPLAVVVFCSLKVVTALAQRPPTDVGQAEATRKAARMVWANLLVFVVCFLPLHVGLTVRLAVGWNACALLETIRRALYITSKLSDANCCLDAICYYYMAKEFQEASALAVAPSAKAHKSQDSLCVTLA
# Cannabinoid receptor 1 [3] = biological target: T1, Cannabinoid receptor 1; test: SAR analysis of agonists of the Cannabinoid Receptor 1 using an Image-Based Assay - Set 4. [Related pubchem assays (depositor defined):AID2013, AID2026]; assay type: functional
# [4] = biological target: G-protein coupled receptor 55 (Homo sapiens, UniProt Q9Y2T6); test: SAR Analysis of Selective Antagonists of GPR55 using an Image-Based Assay - Set 4. [Related pubchem assays (depositor defined):AID2013, AID2026]; assay type: functional;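 further: antagonism of response to 5 µM lysophosphatidylinositol agonist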
# G-protein coupled receptor 55, sequence (Q9Y2T6 whole entry): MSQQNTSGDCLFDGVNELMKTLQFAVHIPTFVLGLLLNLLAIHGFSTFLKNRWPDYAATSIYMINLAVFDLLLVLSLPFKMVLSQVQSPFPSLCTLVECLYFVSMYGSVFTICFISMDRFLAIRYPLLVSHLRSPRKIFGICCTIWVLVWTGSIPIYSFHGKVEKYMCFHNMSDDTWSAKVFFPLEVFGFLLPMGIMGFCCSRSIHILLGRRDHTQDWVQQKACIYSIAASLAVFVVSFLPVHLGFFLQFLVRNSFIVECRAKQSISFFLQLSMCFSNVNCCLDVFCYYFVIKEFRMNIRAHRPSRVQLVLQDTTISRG
# Cannabinoid receptor 2 [5] = biological target: T3, Cannabinoid receptor 2 (Homo sapiens, UniProt P34972); test: SAR analysis of antagonists of the Cannabinoid Receptor 2 using an Image-Based Assay - Set 3. [Related pubchem assays (depositor defined):AID2013, AID2026]; assay type: functional
# T3 sequence (P34972 whole entry): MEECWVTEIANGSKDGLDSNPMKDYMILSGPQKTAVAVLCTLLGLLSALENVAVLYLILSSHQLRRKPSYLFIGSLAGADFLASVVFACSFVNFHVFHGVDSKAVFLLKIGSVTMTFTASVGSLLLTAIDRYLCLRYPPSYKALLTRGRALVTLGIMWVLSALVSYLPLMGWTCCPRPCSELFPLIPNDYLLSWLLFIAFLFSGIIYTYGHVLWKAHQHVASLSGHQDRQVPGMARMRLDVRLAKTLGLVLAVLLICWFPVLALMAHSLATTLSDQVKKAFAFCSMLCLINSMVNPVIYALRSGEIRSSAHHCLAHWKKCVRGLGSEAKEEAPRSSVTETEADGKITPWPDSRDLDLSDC
# [6] = biological target: T2, G-protein coupled receptor 35; test: SAR analysis of Agonists of the GPR35 Receptor using an Image-Based Assay - Set 4. [Related pubchem assays (depositor defined):AID2013, AID2026]; assay type: functional
# Cannabinoid receptor 2 [7] = biological target: T3, Cannabinoid receptor 2; test: SAR analysis of agonists of the Cannabinoid Receptor 2 using an Image-Based Assay - Set 3. [Related pubchem assays (depositor defined):AID2013, AID2026]; assay type: functional
# [8] = Luminescence Cell-Based Dose Response HTS to Identify Inhibitors of 5'UTR Stem-Loop Driven Prion Protein mRNA Translation in H4 Neuroglioblastoma Cells. [Related pubchem assays: 1827 (Project Summary), 1813 (Primary HTS)]; assay type: functional
# BJ [9] = test: cells; assay type: functional, cell-based; conditions: Homo sapiens
# BJ [10] = test: cytotoxicity toward BJ-TERT-LT-ST fibroblasts, dose response, cell-based, RAS-independent, luminescence (AID 1935); assay type: functional; conditions: Homo sapiens;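 further: BJ fibroblasts immortalized with TERT plus LT and ST oncogenes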
# [11] = luciferase reporter signal reduction – luminescence, H4-C neuroglioblastoma cells, dose response (AID 2458); assay type: functional, cell-based;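 further: H4 neuroglioblastoma cells stably carrying a luciferase reporter gene fusion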
# [12] = Luminescence Cell-Based Dose Response HTS to Identify Inhibitors of Luciferase Translation or Activity in H4-C Neuroglioblastoma Cells. [Related pubchem assays: 1813 (Primary HTS), 1827 (Project Summary)]; assay type: functional
# BJ [13] = test: cytotoxicity toward Ras-transformed BJeLR fibroblasts, dose response, cell-based, alamar blue fluorescence, cherrypicked samples (AID 2631); assay type: functional; conditions: Homo sapiens;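 further: confirmatory dose-response assay in RAS-dependent BJ fibroblasts engineered with TERT, LT and ST, with cytotoxicity read by fluorescence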
# [14] = Luminescence Cell-Based Dose Response HTS to Identify Activators of Luciferase Translation or Activity in H4-C Neuroglioblastoma Cells. [Related pubchem assays: 1829 (Project Summary), 1814 (Primary HTS)]; assay type: functional
# [15] = Luminescence Cell-Based Dose Response HTS to Identify Activators of 5'UTR Stem-Loop Driven Prion Protein mRNA Translation in H4-C Neuroglioblastoma Cells. [Related pubchem assays: 1829 (Project Summary), 1814 (Primary HTS)]; assay type: functional
# [16] = Luminescence Cell-Based Dose Retest to Confirm Activators of 5'UTR Stem-Loop Driven Alpha-Synuclein mRNA Translation in H4 Neuroglioblastoma Cells. [Related pubchem assays (depositor defined):AID1813, AID1829]; assay type: functional
# [17] = cytotoxicity toward DRD oncogenic fibroblasts, dose response, cell-based, non-viral oncogenic, luminescence (AID 1934); assay type: functional; conditions: Homo sapiens
# [18] = inhibitors of SNCA 5'UTR-driven translation, confirmation, luminescence, H4 neuroglioblastoma cells, dose confirmation (AID 2454); assay type: functional, cell-based;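 further: H4 neuroglioblastoma cells carrying an alpha-synuclein 5'UTR luciferase reporter; potency for inhibition of the luciferase signal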
# [19] = inhibitors of SNCA 5'UTR-driven reporter translation, confirmation, H4 neuroglioma cells, luminescence (AID 1988); assay type: functional, cell-based
# [20] = Luminescence Cell-Based Dose HTS Response to Identify Inhibitors of 5'UTR Stem-Loop Driven Prion Protein mRNA Translation in H4-C Neuroglioblastoma Cells. [Related pubchem assays (depositor defined):AID1814, AID1827]; assay type: functional
# [21] = inhibitors of firefly luciferase expression or activity, dose response, H4 neuroglioma cells, luminescence (AID 1990); assay type: functional, cell-based
# [22] = Luminescence Cell-Based Dose Confirmation HTS to Identify Inhibitors of 5'UTR Stem-Loop Driven Alpha-Synuclein mRNA Translation in H4 Neuroglioblastoma Cells. [Related pubchem assays: 1827 (Project Summary), 1813 (Primary HTS)]; assay type: functional
# [23] = HEK293 cell cytotoxicity, dose response, cytotoxicity control, dry powder samples (AID 720567); assay type: functional, cell-based
# BJ [24] = test: cytotoxicity toward BJ-TERT fibroblasts, dose response, cell-based, RAS-independent, luminescence (AID 1933); assay type: functional; conditions: Homo sapiens
# cells [25] = assay type: functional, cell-based
# [26] = Vero E6 cell cytotoxicity, dose response, cytotoxicity control for non-replicating M. tuberculosis project, secondary assay (AID 492998); assay type: functional, VeroE6; conditions: Vero C1008
# [27] = biological target: T4, Replicative DNA helicase DnaB (Mycobacterium tuberculosis, UniProt P9WMR3); test: DnaB Intein secondary assay Measured in Biochemical System Using Plate Reader - 2047-04_Inhibitor_Dose_DryPowder_Activity. [Related pubchem assays (depositor defined):AID2223]
# T4 sequence (P9WMR3 whole entry): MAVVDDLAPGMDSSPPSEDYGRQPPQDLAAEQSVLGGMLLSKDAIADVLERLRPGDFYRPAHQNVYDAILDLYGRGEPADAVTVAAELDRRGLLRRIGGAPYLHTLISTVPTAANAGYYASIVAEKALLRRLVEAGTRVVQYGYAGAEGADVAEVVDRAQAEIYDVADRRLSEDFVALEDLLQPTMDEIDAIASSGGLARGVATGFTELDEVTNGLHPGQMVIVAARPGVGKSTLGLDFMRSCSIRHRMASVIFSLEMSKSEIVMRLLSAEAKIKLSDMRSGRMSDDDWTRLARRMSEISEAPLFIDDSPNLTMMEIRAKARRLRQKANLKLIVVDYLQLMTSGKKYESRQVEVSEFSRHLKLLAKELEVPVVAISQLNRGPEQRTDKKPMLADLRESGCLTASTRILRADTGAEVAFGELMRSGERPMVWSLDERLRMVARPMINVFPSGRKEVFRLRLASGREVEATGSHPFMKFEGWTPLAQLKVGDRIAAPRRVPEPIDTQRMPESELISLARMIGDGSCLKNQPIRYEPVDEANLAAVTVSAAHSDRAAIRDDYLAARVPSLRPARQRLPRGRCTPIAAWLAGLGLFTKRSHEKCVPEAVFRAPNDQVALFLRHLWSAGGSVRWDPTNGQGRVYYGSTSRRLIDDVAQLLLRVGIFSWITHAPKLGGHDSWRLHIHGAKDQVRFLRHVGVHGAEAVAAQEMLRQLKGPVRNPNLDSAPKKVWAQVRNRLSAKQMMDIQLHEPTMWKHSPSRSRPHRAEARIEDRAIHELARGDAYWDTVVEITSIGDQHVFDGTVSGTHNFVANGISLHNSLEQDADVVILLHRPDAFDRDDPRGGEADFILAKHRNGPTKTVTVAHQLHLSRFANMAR
# [28] = biological target: T4, Replicative DNA helicase DnaB; test: DnaB intein splicing inhibitors, dose response, biochemical, cell-free fluorescence (AID 449749); assay type: functional
# Protein RecA [29] = biological target: T5, Protein RecA (Mycobacterium tuberculosis, UniProt P9WHJ3); test: GFP-RecA MOA-DTT Measured in Biochemical System Using Plate Reader - 2047-05_Inhibitor_Dose_DryPowder_Activity. [Related pubchem assays (depositor defined):AID2223]; design: species or system Mycobacterium tuberculosis H37Rv
# T5 sequence (P9WHJ3 whole entry): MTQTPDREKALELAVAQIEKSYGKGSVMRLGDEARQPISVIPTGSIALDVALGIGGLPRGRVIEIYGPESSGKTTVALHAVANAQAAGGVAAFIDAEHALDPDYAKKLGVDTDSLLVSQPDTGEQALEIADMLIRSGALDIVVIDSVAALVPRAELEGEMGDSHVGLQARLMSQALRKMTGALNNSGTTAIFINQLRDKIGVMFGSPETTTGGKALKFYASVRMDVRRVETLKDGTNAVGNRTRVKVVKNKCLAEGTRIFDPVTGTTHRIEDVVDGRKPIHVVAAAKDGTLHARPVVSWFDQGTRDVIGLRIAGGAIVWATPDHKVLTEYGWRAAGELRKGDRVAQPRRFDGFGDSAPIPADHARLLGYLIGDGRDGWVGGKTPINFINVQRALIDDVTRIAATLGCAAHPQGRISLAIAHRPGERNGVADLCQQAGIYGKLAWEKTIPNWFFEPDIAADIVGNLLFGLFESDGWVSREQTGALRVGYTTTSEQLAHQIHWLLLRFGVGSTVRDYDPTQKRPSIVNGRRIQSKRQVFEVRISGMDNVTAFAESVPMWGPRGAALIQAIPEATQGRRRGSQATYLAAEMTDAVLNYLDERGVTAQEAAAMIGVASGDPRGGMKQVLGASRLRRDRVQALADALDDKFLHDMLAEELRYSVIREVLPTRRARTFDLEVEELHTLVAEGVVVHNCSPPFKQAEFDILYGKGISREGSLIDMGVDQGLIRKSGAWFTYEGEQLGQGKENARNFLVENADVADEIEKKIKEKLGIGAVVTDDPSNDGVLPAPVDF
# [30] = Intein inhibitors as potential Tuberculosis drugs, a cytotoxicity screen. [Related pubchem assays (depositor defined):AID2221, AID2223, AID434968, AID435010, AID449749, AID449750, AID489010]; assay type: functional
# [31] = THP-1 cell cytotoxicity, dose response, cytotoxicity control for non-replicating M. tuberculosis project (AID 489025); assay type: functional
# Protein RecA [32] = biological target: T5, Protein RecA; test: Fluorescence Cell-Free Homogeneous Dose Retest to Identify Inhibitors of RecA-Intein Splicing Activity. [Related pubchem assays (depositor defined):AID2097, AID2223, AID489010, AID492950]; assay type: functional
# Nonstructural protein 1 = Nonstructural protein 1 (Influenza A virus, UniProt Q194T2); assay type: functional, Influenza A virus (A/California/07/2009(H1N1))
# Nonstructural protein 1, sequence (Q194T2 whole entry): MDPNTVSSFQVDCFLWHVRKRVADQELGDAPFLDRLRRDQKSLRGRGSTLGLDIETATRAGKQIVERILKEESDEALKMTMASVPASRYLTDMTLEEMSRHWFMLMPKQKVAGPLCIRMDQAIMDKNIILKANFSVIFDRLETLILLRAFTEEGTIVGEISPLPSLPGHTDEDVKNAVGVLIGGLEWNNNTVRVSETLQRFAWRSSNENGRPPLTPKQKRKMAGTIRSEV
# cells [33] = assay type: functional
# Protein RecA [34] = biological target: T5, Protein RecA; test: RecA Intein Measured in Biochemical System Using Plate Reader - 2047-02_Inhibitor_Dose_DryPowder_Activity. [Related pubchem assays (depositor defined):AID2223]; design: species or system Mycobacterium tuberculosis H37Rv
# [35] = biological target: T6, Microphthalmia-associated transcription factor (Homo sapiens, UniProt O75030); test: TRPM1 promoter luciferase signal decrease, dose response, MITF inhibitor project, cell-based, SK-MEL-5, cherry-picked, set 3 (AID 493073); assay type: functional
# T6 sequence (O75030 whole entry): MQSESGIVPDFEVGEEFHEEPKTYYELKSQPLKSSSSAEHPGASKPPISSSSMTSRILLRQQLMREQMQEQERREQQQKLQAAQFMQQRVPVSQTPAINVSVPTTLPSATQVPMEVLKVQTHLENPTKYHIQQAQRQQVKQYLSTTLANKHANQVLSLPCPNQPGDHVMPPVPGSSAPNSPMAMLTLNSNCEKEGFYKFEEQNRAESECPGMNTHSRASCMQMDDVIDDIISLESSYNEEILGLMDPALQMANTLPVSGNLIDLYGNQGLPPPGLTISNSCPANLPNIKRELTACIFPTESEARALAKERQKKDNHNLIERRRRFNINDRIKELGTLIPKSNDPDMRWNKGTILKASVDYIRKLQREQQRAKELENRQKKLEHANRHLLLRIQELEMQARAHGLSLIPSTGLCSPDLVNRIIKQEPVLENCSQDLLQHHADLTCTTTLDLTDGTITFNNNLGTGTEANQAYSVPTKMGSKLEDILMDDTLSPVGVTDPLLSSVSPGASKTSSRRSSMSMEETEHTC
# T1 sequence (P21554 whole entry): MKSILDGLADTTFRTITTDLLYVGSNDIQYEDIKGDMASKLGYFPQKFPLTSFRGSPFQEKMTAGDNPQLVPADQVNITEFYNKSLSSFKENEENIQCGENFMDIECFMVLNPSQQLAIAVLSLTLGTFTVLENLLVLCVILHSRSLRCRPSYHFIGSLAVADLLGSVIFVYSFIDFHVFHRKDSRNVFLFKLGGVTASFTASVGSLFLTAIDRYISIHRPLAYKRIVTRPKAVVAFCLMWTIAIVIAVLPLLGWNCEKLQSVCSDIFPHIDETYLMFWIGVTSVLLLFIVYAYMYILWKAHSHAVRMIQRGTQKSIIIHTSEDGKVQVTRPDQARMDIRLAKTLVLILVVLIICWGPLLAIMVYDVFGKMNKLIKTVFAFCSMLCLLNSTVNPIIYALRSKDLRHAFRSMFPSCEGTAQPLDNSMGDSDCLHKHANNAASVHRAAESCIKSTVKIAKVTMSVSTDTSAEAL
compound,measurement,setting,value
COc1ccc(-c2cc(C(=O)Nc3ccc(S(=O)(=O)Nc4ncccn4)cc3)c3ccccc3n2)cc1,IC50,Cannabinoid receptor 1 [1],24.5 µM (inactive)
same,IC50,[2],> 32 µM (inactive)
same,EC50,Cannabinoid receptor 1 [3],> 32 µM (inactive)
same,IC50,[4],> 32 µM (inactive)
same,IC50,Cannabinoid receptor 2 [5],> 32 µM (inactive)
same,EC50,[6],> 32 µM (inactive)
same,EC50,Cannabinoid receptor 2 [7],> 32 µM (inactive)
COc1cccc(N2CCN(C(=O)c3ccc(C[S+]([O-])c4ccc(C)cc4)o3)CC2)c1 (stereo unspecified),EC50,[8],12.6 µM (active)
same,EC50,BJ [9],479 nM (inconclusive)
same,EC50,BJ [10],651 nM (active)
same,EC50,[11],930 nM (active)
same,EC50,[12],703 nM (active)
same,EC50,BJ [13],< 104 nM (active)
same,EC50,[14],703 nM (inconclusive)
same,EC50,[15],186 nM (inconclusive)
same,EC50,[16],36.4 µM (inconclusive)
same,EC50,[17],637 nM (active)
same,EC50,[18],1.43 µM (active)
same,EC50,[19],< 100 nM (active)
same,EC50,[20],186 nM (active)
same,EC50,[21],5.76 µM (active)
same,EC50,[22],36.4 µM (active)
same,AC50,[23],> 30 µM (inactive)
same,EC50,BJ [24],873 nM (active)
same,EC50,cells [25],1.57 µM (active)
Cc1ccccc1-n1ncc2c([N+](=O)[O-])cc([N+](=O)[O-])cc21,CC50,[26],> 20 µM (active)
same,AC50,[27],5.7 µM (active)
same,AC50,[28],3.15 µM (active)
same,AC50,Protein RecA [29],232 µM (active)
same,CC50,[30],30.8 µM (active)
same,CC50,[31],> 40 µM (active)
same,EC50,Protein RecA [32],911 nM (active)
same,IC50,Nonstructural protein 1,31.1 µM (active)
same,IC50,cells [33],950 nM (active)
same,AC50,Protein RecA [34],2.19 µM (active)
same,AC50,[35],8.7 µM (active)
